One data set concerns CD rats. Put plainly: 14-consecutive day nose-only inhalation toxicity and recovery. In kind it is in vivo, rat. On the procedure:
The solution was used to generate aerosolized vancomycin for all vancomycin exposure groups.
Nose-only exposures were conducted in a “flow-past” cylindrical inhalation chamber placed inside a steel-framed Plexiglas secondary containment box. The chamber contained 48 animal ports, each compatible with a single nose-only exposure tube, aerosol concentration sampling device (e.g., filter), or oxygen monitor.
The total air flow through the exposure system was balanced to achieve individual animal port flows of ˜500 mL/min (port flow approximated based on total chamber flow). Measured flows included sample flow rate, nebulizer flow rate, dilution flow rate (chamber make-up air), and chamber exhaust flow.
Vancomycin solution was aerosolized with two Aerotech II nebulizers operated at 20 psi driving pressure. The target aerosol Vancomycin concentration for all exposure levels was ˜1.0 mg/L.
Aerosolized vancomycin was administered to 3 groups of male and female CD rats (available from Charles River Laboratories, Kingston, N.Y.) for durations of 30 min (Low), 90 min (Mid), and 180 min (High). A control group was exposed for 180 min to aerosols generated from a normal saline solution. Groups of rats from the Control and High level 14-day exposures were also studied following a 14-day recovery period. Endpoints included clinical observations, body weights, clinical pathology (hematology, clinical chemistry), urinalyses, organ weights, and histopathology.

The nature of data set [1]: Aerosol particle size distribution by laser diffraction. The settings on record: solutions in WFI 60-140 mg/ml, fill 2-4 ml. Type of data set: physicochemical.
Protocol: Droplet size distributions for aerosolized drug and placebo solutions were measured using the Sympatec HELOS laser diffraction spectrometer. In preparation for a run, the nebulizer was connected to the compressed air line, the flow turned on and the pressure regulator set to a driving pressure to generate a flow rate of 8 LPM through the nebulizer. The flow was then turned off by closing the flow shut-off valve. Next, the nebulizer was connected to a “T” piece with one port plugged, and the other port coupled to a mouthpiece. The nebulizer was then filled with drug solution, and mounted so that nebulizer mouthpiece was aligned parallel to the nozzle of the Rodos dry powder disperser apparatus already installed in the spectrometer. The laser diffraction system was setup to automatically trigger when it sensed the presence of the aerosol generated by the nebulizer. Measurements were initiated by opening the shut-off valve to pressurize the nebulizer and generate the aerosol. A total of 6 particle size distribution scans were taken for each nebulizer run, and then averaged to provide representative size distribution results.
The next data set concerns beagle dogs. Put plainly: 14-consecutive day face mask inhalation toxicity and recovery. Type of data set: in vivo, dog. On the procedure: Within 2 hours prior to usage, a vancomycin nebulizer solution having a concentration of 120 mg/ml was formed by dissolving vancomycin hydrochloride (available from Alpharma, Copenhagen, Denmark) in sterile water for injection USP (available from B. Braun Medical Inc., Bethlehem, Pa.). The solution was used to generate aerosolized vancomycin for all vancomycin exposure groups.
The exposure system consisted of a single, cylindrical, plexiglass inhalation chamber (volume of ˜23.7 L, 14.61-cm radius, 35.56-cm height). The chamber was supplied with two Aerotech II nebulizers operated at ˜40 psi. Nebulized test article and nebulizer air supply was diluted with ˜10 L/min HEPA-filtered dilution air. The flow through the system was ˜36 L/min.
The aerosolized vancomycin was administered via a face mask to 3 groups of male and female beagle dogs for durations of 15 min (Low), 30 min (Mid), and 60 min (High). A control group was exposed for 60 min to aerosols generated from normal saline solution, i.e., 0.9% sodium chloride injection USP (available from B. Braun Medical Inc.).
Groups of dogs from the Control and High level 14-day exposures were also studied following a 14-day recovery period. Endpoints for all groups of dogs included physical examinations, clinical observations, body weights, ophthalmology, cardiovascular EKG, clinical pathology (hematology, clinical chemistry), urinalyses, organ weights, histopathology, and toxicokinetics.

Where a name gives a salt, the structure may show the parent alone.

Consider `CN[C@H](CC(C)C)C(=O)N[C@H]1C(=O)N[C@@H](CC(N)=O)C(=O)N[C@H]2C(=O)N[C@H]3C(=O)N[C@H](C(=O)N[C@H](C(=O)O)c4cc(O)cc(O)c4-c4cc3ccc4O)[C@H](O)c3ccc(c(Cl)c3)Oc3cc2cc(c3O[C@@H]2O[C@H](CO)[C@@H](O)[C@H](O)[C@H]2O[C@H]2C[C@](C)(N)[C@H](O)[C@H](C)O2)Oc2ccc(cc2Cl)[C@H]1O` [Vancomycin HCl, vancomycin hydrochloride], for which the “mass median aerodynamic diameter of exposure aerosol” value in the data set with CD rats (120 mg/ml solution, Aerotech II nebulizers, 20 psi) is given as 2.0-2.6 μm; in the data set on beagle dogs (120 mg/ml solution, Aerotech II nebulizers, ~40 psi) it was 1.9-2.6 μm. Also, the “no observed effect level” value in the data set on CD rats (rat, 14-day inhalation) is listed as “not established”. In addition, the “serum indicators of kidney function or urinalysis” value in the data set on CD rats (rat, 14-day inhalation) is “No vancomycin related changes”. Further, the lung weight increase in the data set on CD rats (rat, High exposure level (180 min), 14 days) is given as ~19 % of control; in the data set on CD rats (rat, Low exposure level (30 min), 14 days), “approximately 8 % of control”; in the data set on CD rats (rat, Mid exposure level (90 min), 14 days), ~20 % of control. For the same compound, in the data set on CD rats (rat, High level, 14 days of recovery), the “histopathologic findings after recovery” value is recorded as “substantial diminution of these findings”. Moreover, the “neutrophils (hematology)” value in the data set on CD rats (rat, Mid and High exposure levels) was “statistically significant increase”. Moreover, in the data set on CD rats (rat, end of 14-day exposure), the “exposure related histopathologic findings” value is on record as “limited to the respiratory tract”. Also, the tolerability result is given as “well-tolerated by all groups of rats” in the data set with CD rats (rat, inhalation 30, 90, 180 min/day, 14 days) and “well-tolerated by all groups of dogs” in the data set on beagle dogs (dog, face mask 15, 30, 60 min/day, 14 days). Moreover, in the data set on CD rats (rat, inhalation 14 days), the body weight result was “no vancomycin treatment related effects”. The clinical observations entry with CD rats (rat, inhalation 14 days) was “no vancomycin related effects”. Besides, the survival entry with CD rats (rat, inhalation 14 days, all groups) is listed as “All rats survived to scheduled necropsy”; in the data set with beagle dogs (dog, 14 days, all groups), “All dogs survived to scheduled necropsy”. Further, the “volume weighted median size of aerosol” value in data set [1] was 2-3 μm. The “physical examinations, clinical observations, ophthalmology, ECG, hematology, clinical chemistry, urinalyses, gross necropsy, organ weights” value with beagle dogs (dog, 14-day inhalation) is “no vancomycin related effects”. Besides, in the data set with beagle dogs (dog, High level, 14-day recovery), the “recovery of histopathological effects” value was “complete after 14 days”. Further, in the data set with beagle dogs (dog, end of 14-day exposure), the histopathology result was “limited to microscopic findings in the lung”.

These data come from patent publication US9351929B2, “Antibiotic formulations, unit doses, kits, and methods” (Bayer Intellectual Property GMBH, priority 2005, dated 2016).
